In patent US20260008768A1, “UREA DERIVATIVES FOR INHIBITING NLRP3 AND USES THEREOF” (VENTUS THERAPEUTICS U.S., INC., priority 2023, published 2026):

Target: human NLRP3 (Homo sapiens, UniProt Q96P20)
Assay: Scintillation Proximity (SPA) NLRP3 Assay, displacement of 3H-MCC950
Type: binding
Conditions: Table B, activity class; displacement of 3H-MCC950 from human NLRP3
Experimental: Improved NLRP3 binding correlates with increased affinity for NLRP3 protein and, by extension, increased ability to interfere with its function.
SPA experiments were conducted in a total volume of 20 μL assay buffer containing 20 mM HEPES pH 7.5, 150 mM NaCl, 5 mM MgCl2, 0.01% (v/v) Tween-20, 0.01% (w/v) bovine serum albumin (BSA) and 100 μM of adenosine diphosphate (ADP). A human NLRP3 protein (350 nM) (see, e.g., Sharif et al., Nature (2019) 570:338-343; Hochheiser et al., Nature (2022) 604:184-189; Adreeva et al., Cell (2021) 184:6299-6312; Wang et al., J Exp. Med. (2021) 219:e20211147) was incubated with various concentration of compounds in 5% dimethyl sulfoxide (DMSO) final for 15 minutes at room temperature in a white half-area 96 well OptiPlate (PerkinElmer #6002290) before adding 125 nM final of 3H-MCC950. After the addition of radiolabeled MCC950, the plate was incubated for 60 minutes at room temperature before adding 0.25 mg/ml of copper-coated polyvinyltoluene SPA beads (PerkinElmer #RPNQ0095). The plate was then transferred to a microplate counter (PerkinElmer 2450 Microbeta) to collect binding data. Binding data was analyzed 6 hrs post-PVT bead addition to allow sufficient time to reach equilibrium. Specific binding was calculated from averaged duplicates by subtracting signal from wells without NLRP3 protein.
SPA NLRP3 IC50 assay results are provided in Table B. “A” activity=<1 uM; “B” activity=1-10 uM; “C” activity=>10-50 uM; “D” activity=>50 uM-100 uM; and “E” activity=>100 uM.

Chain of human NLRP3 (Q96P20 whole entry): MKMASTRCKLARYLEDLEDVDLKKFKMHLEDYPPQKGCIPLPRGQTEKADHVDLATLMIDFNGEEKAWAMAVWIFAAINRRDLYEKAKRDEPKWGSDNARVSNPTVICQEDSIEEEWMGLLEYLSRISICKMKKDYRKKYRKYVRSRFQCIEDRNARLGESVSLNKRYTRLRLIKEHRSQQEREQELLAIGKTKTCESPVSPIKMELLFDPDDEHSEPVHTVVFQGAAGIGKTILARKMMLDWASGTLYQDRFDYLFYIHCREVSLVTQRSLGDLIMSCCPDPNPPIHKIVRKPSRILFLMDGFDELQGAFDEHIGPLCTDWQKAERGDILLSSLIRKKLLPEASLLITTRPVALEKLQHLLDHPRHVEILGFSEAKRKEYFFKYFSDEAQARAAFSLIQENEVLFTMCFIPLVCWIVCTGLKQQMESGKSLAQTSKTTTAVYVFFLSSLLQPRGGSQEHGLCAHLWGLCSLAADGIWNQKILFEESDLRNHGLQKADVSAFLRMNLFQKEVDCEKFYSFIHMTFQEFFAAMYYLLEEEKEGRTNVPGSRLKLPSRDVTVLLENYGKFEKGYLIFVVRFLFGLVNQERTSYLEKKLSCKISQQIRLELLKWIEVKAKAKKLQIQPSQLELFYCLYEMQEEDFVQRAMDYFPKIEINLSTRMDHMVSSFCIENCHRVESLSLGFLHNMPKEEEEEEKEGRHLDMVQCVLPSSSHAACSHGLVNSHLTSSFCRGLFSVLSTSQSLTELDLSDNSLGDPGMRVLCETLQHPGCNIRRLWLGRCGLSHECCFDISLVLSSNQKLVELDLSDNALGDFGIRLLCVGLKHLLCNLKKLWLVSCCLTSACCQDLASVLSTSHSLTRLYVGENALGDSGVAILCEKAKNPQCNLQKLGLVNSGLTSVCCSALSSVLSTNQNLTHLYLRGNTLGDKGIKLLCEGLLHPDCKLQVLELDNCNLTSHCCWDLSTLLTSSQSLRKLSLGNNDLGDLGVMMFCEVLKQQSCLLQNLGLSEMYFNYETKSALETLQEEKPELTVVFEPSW

IC50 [µM] | SMILES
10 to 50 | C[C@H]1CCN(c2nnn[nH]2)C[C@H](NC(=O)N(C)c2ccc(OC(F)(F)F)cc2F)C1 (single isomer, unassigned) [24C*]
1 to 10 | C[C@H]1CCN(c2nnn[nH]2)C[C@@H](NC(=O)N(C)c2ccc(OC(F)F)c(F)c2)C1 (single isomer, unassigned) [15D*]
10 to 50 | C[C@H]1CCN(c2nnn[nH]2)C[C@H](NC(=O)N(CC2CC2)c2ccc(OC(F)(F)F)cc2)C1 (single isomer, unassigned) [44C*]
1 to 10 | C[C@H]1CCN(c2nnn[nH]2)C[C@@H](NC(=O)N(CC2CC2)c2ccc(OC(F)(F)F)cc2)C1 (single isomer, unassigned) [44D*]
10 to 50 | C[C@H]1CCN(c2nnn[nH]2)C[C@H](NC(=O)N(C)c2ccc(C(F)F)cc2F)C1 (single isomer, unassigned) [18C*]
1 to 10 | C[C@@H]1CCN(c2nnn[nH]2)C[C@@H](NC(=O)N(C)c2c(F)cc(OC(F)(F)F)cc2F)C1 (single isomer, unassigned) [41B*]
10 to 50 | C[C@H]1CCN(c2nnn[nH]2)C[C@H](NC(=O)N(C)c2ccc(Cl)c(F)c2)C1 (single isomer, unassigned) [12C*]
> 100 | C[C@H]1CCN(c2nnn[nH]2)C[C@H](NC(=O)N(C)c2ccc(C(F)(F)F)c(F)c2)C1 (single isomer, unassigned) [9C*]
1 to 10 | C[C@@H]1CCN(c2nnn[nH]2)C[C@@H](NC(=O)N(C)c2ccc(OC(F)F)c(OC(F)F)c2)C1 (single isomer, unassigned) [16B*]
1 to 10 | C[C@H]1CCN(c2nnn[nH]2)C[C@H](NC(=O)N(C)c2ccc(OC(F)(F)F)c(OC(F)F)c2)C1 (single isomer, unassigned) [25C*]
1 to 10 | C[C@H]1CCN(c2nnn[nH]2)C[C@@H](NC(=O)N(C)c2ccc(C3CC3)cc2)C1 (single isomer, unassigned) [8D*]
1 to 10 | C[C@H]1CCN(c2nnn[nH]2)C[C@@H](NC(=O)N(C)c2ccc(C(F)F)c(F)c2)C1 (single isomer, unassigned) [22D*]
1 to 10 | C[C@@H]1CCN(c2nnn[nH]2)C[C@@H](NC(=O)N(C)c2c(F)cc(OC(F)F)cc2F)C1 (single isomer, unassigned) [19B*]
1 to 10 | C[C@H]1CCN(c2nnn[nH]2)C[C@@H](NC(=O)N(C)c2c(F)cc(C3CC3)cc2F)C1 (single isomer, unassigned) [20D*]
1 to 10 | C[C@@H]1CCN(c2nnn[nH]2)C[C@@H](NC(=O)N(C)c2ccc(OC(F)F)c(F)c2F)C1 (single isomer, unassigned) [40B*]
1 to 10 | C[C@H]1CCN(c2nnn[nH]2)C[C@@H](NC(=O)N(C)c2ccc(C(F)(F)F)cc2F)C1 (single isomer, unassigned) [13D*]
> 100 | C[C@H]1C[C@@H](NC(=O)N(C)c2ccc3nccn3c2)CN(c2nnn[nH]2)C1 [Compound 37A, 1-(imidazo[1,2-a]pyridin-6-yl)-1-methyl-3-((3R,5S)-5-methyl-1-(1H-tetrazol-5-yl)piperidin-3-yl)urea]
1 to 10 | C[C@H]1CCN(c2nnn[nH]2)C[C@@H](NC(=O)N(C)c2c(F)cc(OC(F)(F)F)cc2F)C1 (single isomer, unassigned) [41D*]

IC50 [µM] | SMILES
1 to 10 | C[C@H]1CCN(c2nnn[nH]2)C[C@H](NC(=O)N(C)c2ccc(OC(F)F)cc2F)C1 (single isomer, unassigned) [17C*]
10 to 50 | C[C@H]1CCN(c2nnn[nH]2)C[C@@H](NC(=O)N(C)c2ccc(OC(F)(F)F)c(F)c2)C1 (single isomer, unassigned) [14D*]
1 to 10 | C[C@H]1CCN(c2nnn[nH]2)C[C@@H](NC(=O)N(C)c2ccc(OC(F)F)cc2)C1 (single isomer, unassigned) [11D*]
1 to 10 | C[C@H]1CCN(c2nnn[nH]2)C[C@@H](NC(=O)N(C)c2ccc(Cl)cc2F)C1 (single isomer, unassigned) [5D*]
1 to 10 | C[C@@H]1CCN(c2nnn[nH]2)C[C@@H](NC(=O)N(C)c2ccc(C(F)F)c(F)c2)C1 (single isomer, unassigned) [22B*]
1 to 10 | C[C@@H]1CCN(c2nnn[nH]2)C[C@@H](NC(=O)N(C)c2ccc(OC(F)(F)F)cc2F)C1 (single isomer, unassigned) [24B*]
50 to 100 | C[C@@H]1CCN(c2nnn[nH]2)C[C@@H](NC(=O)N(C)c2ccc(Cl)cn2)C1 (single isomer, unassigned) [28B*]
> 100 | C[C@H]1CCN(c2nnn[nH]2)C[C@@H](NC(=O)Nc2ccc(Cl)cc2F)C1 (single isomer, unassigned) [27D*]
1 to 10 | C[C@H]1CCN(c2nnn[nH]2)C[C@@H](NC(=O)N(C)c2ccc(OC(F)F)c(OC(F)F)c2)C1 (single isomer, unassigned) [16D*]
10 to 50 | CC1CCN(c2nnn[nH]2)CC(NC(=O)N(C)c2cnc(C(F)(F)F)nc2)C1 (single isomer, unassigned) [31C*]
> 100 | C[C@H]1CCN(c2nnn[nH]2)C[C@@H](NC(=O)N(C)c2ccc(Cl)c(F)c2)C1 (single isomer, unassigned) [12D*]
1 to 10 | C[C@@H]1CCN(c2nnn[nH]2)C[C@@H](NC(=O)N(C)c2ccc(OC(F)(F)F)cc2)C1 (single isomer, unassigned) [10B*]
10 to 50 | C[C@H]1CCN(c2nnn[nH]2)C[C@@H](NC(=O)N(C)c2ccc(Cl)cc2Cl)C1 (single isomer, unassigned) [7D*]
10 to 50 | C[C@H]1CCN(c2nnn[nH]2)C[C@H](NC(=O)N(C)c2ccc(C(F)F)c(F)c2)C1 (single isomer, unassigned) [22C*]
10 to 50 | C[C@H]1CCN(c2nnn[nH]2)C[C@H](NC(=O)N(C)c2ccc(OC(F)F)c(F)c2F)C1 (single isomer, unassigned) [40C*]
1 to 10 | C[C@H]1CCN(c2nnn[nH]2)C[C@@H](NC(=O)N(C)c2ccc(C(F)(F)F)c(F)c2)C1 [Compound 9D, 1-(3-fluoro-4-(trifluoromethyl)phenyl)-1-methyl-3-((3S,5S)-5-methyl-1-(1H-tetrazol-5-yl)azepan-3-yl)urea]
50 to 100 | C[C@@H]1CCN(c2nnn[nH]2)C[C@@H](NC(=O)N(C)c2cnc(C(F)(F)F)cn2)C1 (single isomer, unassigned) [32B*]

SMILES | IC50 [µM]
C[C@@H]1C[C@H](NC(=O)N(C)c2ccc(C3CC3)c(F)c2)[C@H]2CC[C@@H]1N2c1nnn[nH]1 (single isomer, unassigned) [54B*] | > 100
C[C@@H]1C[C@H](NC(=O)N(C)c2ccc(OC(F)(F)F)c(F)c2)[C@H]2CC[C@@H]1N2c1nnn[nH]1 (single isomer, unassigned) [51B*] | 50 to 100
C[C@H]1C[C@@H](NC(=O)N(C)c2ccc(OC(F)F)c(F)c2F)[C@@H]2CC[C@H]1N2c1nnn[nH]1 (single isomer, unassigned) [58C*] | 50 to 100
C[C@H]1C[C@H](NC(=O)N(C)c2c(F)cc(C3CC3)cc2F)[C@@H]2CC[C@H]1N2c1nnn[nH]1 (single isomer, unassigned) [60D*] | 1 to 10
C[C@H]1C[C@H](NC(=O)N(C)c2ccc(C3CC3)cc2)[C@@H]2CC[C@H]1N2c1nnn[nH]1 (single isomer, unassigned) [46D*] | 10 to 50
C[C@@H]1C[C@H](NC(=O)N(C)c2ccc(C(F)(F)F)c(F)c2F)[C@H]2CC[C@@H]1N2c1nnn[nH]1 (single isomer, unassigned) [47B*] | 50 to 100
C[C@H]1C[C@H](NC(=O)N(C)c2ccc(OC(F)F)c(OC(F)F)c2)[C@@H]2CC[C@H]1N2c1nnn[nH]1 (single isomer, unassigned) [64D*] | 1 to 10
C[C@H]1C[C@H](NC(=O)N(C)c2ccc(OC(F)(F)F)c(F)c2)[C@@H]2CC[C@H]1N2c1nnn[nH]1 (single isomer, unassigned) [51D*] | 10 to 50
C[C@H]1C[C@H](NC(=O)N(C)c2ccc(C(F)F)c(F)c2)[C@@H]2CC[C@H]1N2c1nnn[nH]1 (single isomer, unassigned) [53D*] | > 100
C[C@H]1C[C@@H](NC(=O)N(C)c2ccc(Cl)c(F)c2)[C@@H]2CC[C@H]1N2c1nnn[nH]1 (single isomer, unassigned) [50C*] | > 100
C[C@H]1C[C@H](NC(=O)N(C)c2c(F)cc(OC(F)F)cc2F)[C@@H]2CC[C@H]1N2c1nnn[nH]1 (single isomer, unassigned) [61D*] | 10 to 50
C[C@@H]1C[C@H](NC(=O)N(C)c2ccc(OC(F)F)c(F)c2)[C@H]2CC[C@@H]1N2c1nnn[nH]1 (single isomer, unassigned) [52B*] | > 100
C[C@H]1C[C@H](NC(=O)N(C)c2ccc(Cl)c(F)c2)[C@@H]2CC[C@H]1N2c1nnn[nH]1 (single isomer, unassigned) [50D*] | 10 to 50
C[C@@H]1C[C@H](NC(=O)N(C)c2ccc(Cl)c(F)c2)[C@H]2CC[C@@H]1N2c1nnn[nH]1 (single isomer, unassigned) [50B*] | > 100
C[C@@H]1C[C@H](NC(=O)N(C)c2ccc(OC(F)F)c(F)c2F)[C@H]2CC[C@@H]1N2c1nnn[nH]1 (single isomer, unassigned) [58B*] | > 100
